Measurements taken from PubChem BioAssay AID252 (DTP/NCI, 2004).
Values joined by “and” are separate entries in the source; they are usually repeats but may differ in a detail not shown here. Equal values may be shown once. Inconclusive results and toxic doses are left out.

Tested on: BDF1 mice, intracerebral L1210 leukemia, survival T/C
Assay: NCI In Vivo Anticancer Drug Screen. Data for tumor model L1210 Leukemia (intracerebral) in B6D2F1 (BDF1) mice
Conditions: endpoint: mean survival time, higher = longer survival
Summary of the method: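 Antitumour effect is judged in mice with transplanted tumour by comparing survival of treated (T) against vehicle-dosed (C) groups as T/C.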

[1] = dose: 13.0 mg/kg/injection, schedule: Q01DX001 (ip), vehicle: saline

O=NN(CCCl)C(=O)NCCCl
T/C (dose: 2.0 mg/kg/injection, schedule: Q01DX009 (ip), vehicle: saline): 122 % of control
T/C (dose: 3.0 mg/kg/injection, schedule: Q04DX003 (ip), vehicle: saline): 151 % of control
T/C (dose: 3.7 mg/kg/injection, schedule: Q01DX001 (ip), vehicle: other): 114 % of control
T/C (dose: 4.0 mg/kg/injection, schedule: Q01DX009 (ip), vehicle: other): 174 % of control
T/C (dose: 4.0 mg/kg/injection, schedule: Q01DX009 (ip), vehicle: saline): 154 % of control
T/C (dose: 5.0 mg/kg/injection, schedule: Q01DX001 (ip), vehicle: other): 117 % of control
T/C (dose: 5.0 mg/kg/injection, schedule: Q01DX001 (ip), vehicle: saline): 121 % of control
T/C (dose: 6.0 mg/kg/injection, schedule: Q04DX003 (ip), vehicle: saline): 173 % of control
T/C (dose: 7.0 mg/kg/injection, schedule: Q01DX001 (ip), vehicle: other): 119 % of control
T/C (dose: 8.0 mg/kg/injection, schedule: Q01DX005 (ip), vehicle: saline): 175 % of control
T/C (dose: 8.0 mg/kg/injection, schedule: Q01DX009 (ip), vehicle: other): 225 % of control
T/C (dose: 8.0 mg/kg/injection, schedule: Q01DX009 (ip), vehicle: saline): 197 % of control
T/C (dose: 8.4 mg/kg/injection, schedule: Q01DX001 (ip), vehicle: saline): 117 % of control and 122 % of control
T/C (dose: 9.75 mg/kg/injection, schedule: Q01DX001 (ip), vehicle: saline): 150 % of control and 153 % of control and 173 % of control
T/C (dose: 10.0 mg/kg/injection, schedule: Q01DX001 (oral), vehicle: saline): 120 % of control
T/C (dose: 11.0 mg/kg/injection, schedule: Q04DX003 (ip), vehicle: saline + alcohol): 203 % of control
T/C (dose: 12.0 mg/kg/injection, schedule: Q04DX003 (ip), vehicle: saline): 250 % of control
T/C [1]: 219 % of control and 284 % of control
T/C (dose: 14.0 mg/kg/injection, schedule: Q01DX001 (sc), vehicle: saline): 186 % of control
T/C (dose: 15.0 mg/kg/injection, schedule: Q01DX001 (ip), vehicle: other): 153 % of control and 155 % of control
T/C (dose: 15.0 mg/kg/injection, schedule: Q01DX001 (ip), vehicle: saline): 175 % of control
T/C (dose: 16.0 mg/kg/injection, schedule: Q01DX009 (ip), vehicle: other): 123 % of control
T/C (dose: 16.0 mg/kg/injection, schedule: Q01DX009 (ip), vehicle: saline): 103 % of control
T/C (dose: 19.5 mg/kg/injection, schedule: Q01DX001 (ip), vehicle: saline): 197 % of control and 202 % of control and 226 % of control
T/C (dose: 19.7 mg/kg/injection, schedule: Q01DX001 (oral), vehicle: saline): 217 % of control and 250 % of control (2×)
T/C (dose: 20.0 mg/kg/injection, schedule: Q01DX001 (ip), vehicle: other): 174 % of control
T/C (dose: 20.0 mg/kg/injection, schedule: Q01DX001 (oral), vehicle: saline): 159 % of control and 172 % of control
T/C (dose: 22.0 mg/kg/injection, schedule: Q04DX003 (ip), vehicle: saline + alcohol): 276 % of control
T/C (dose: 23.0 mg/kg/injection, schedule: Q01DX001 (sc), vehicle: saline): 228 % of control
T/C (dose: 24.0 mg/kg/injection, schedule: Q01DX001 (ip), vehicle: saline): 236 % of control
T/C (dose: 25.0 mg/kg/injection, schedule: Q01DX001 (ip), vehicle: saline): 263 % of control and 357 % of control
T/C (dose: 25.0 mg/kg/injection, schedule: Q01DX001 (oral), vehicle: saline): 261 % of control
T/C (dose: 29.0 mg/kg/injection, schedule: Q01DX001 (ip), vehicle: saline): 266 % of control and 297 % of control
T/C (dose: 30.0 mg/kg/injection, schedule: Q01DX001 (ip), vehicle: saline): 225 % of control and 440 % of control
T/C (dose: 31.0 mg/kg/injection, schedule: Q01DX001 (ip), vehicle: other): 246 % of control and 269 % of control
T/C (dose: 39.0 mg/kg/injection, schedule: Q01DX001 (sc), vehicle: saline): 241 % of control
T/C (dose: 39.5 mg/kg/injection, schedule: Q01DX001 (oral), vehicle: saline): 269 % of control and 387 % of control and 405 % of control
T/C (dose: 40.0 mg/kg/injection, schedule: Q01DX001 (ip), vehicle: other): 333 % of control
T/C (dose: 44.0 mg/kg/injection, schedule: Q04DX003 (ip), vehicle: saline + alcohol): 87 % of control
T/C (dose: 48.0 mg/kg/injection, schedule: Q01DX001 (ip), vehicle: saline): 296 % of control
T/C (dose: 50.0 mg/kg/injection, schedule: Q01DX001 (ip), vehicle: saline): 150 % of control
T/C (dose: 50.0 mg/kg/injection, schedule: Q01DX001 (oral), vehicle: saline): 238 % of control
T/C (dose: 60.0 mg/kg/injection, schedule: Q01DX001 (ip), vehicle: saline): 112 % of control
T/C (dose: 62.0 mg/kg/injection, schedule: Q01DX001 (ip), vehicle: other): 117 % of control
T/C (dose: 65.0 mg/kg/injection, schedule: Q01DX001 (sc), vehicle: saline): 162 % of control
T/C (dose: 79.0 mg/kg/injection, schedule: Q01DX001 (oral), vehicle: saline): 172 % of control and 175 % of control

O=C1C(N2CC2)=C(N2CC2)C(=O)C(N2CC2)=C1N1CC1
T/C (dose: 0.02 mg/kg/injection, schedule: Q01DX009 (ip), vehicle: saline): 102 % of control
T/C (dose: 0.04 mg/kg/injection, schedule: Q01DX009 (ip), vehicle: saline): 120 % of control
T/C (dose: 0.16 mg/kg/injection, schedule: Q01DX009 (ip), vehicle: saline): 112 % of control

CCN(CC)c1ccc2cc3ccc(=[N+](CC)CC)cc-3oc2c1
T/C (dose: 8.0 mg/kg/injection, schedule: Q01DX001 (ip), vehicle: saline): 97 % of control
T/C [1]: 96 % of control
T/C (dose: 19.0 mg/kg/injection, schedule: Q01DX001 (ip), vehicle: saline): 100 % of control

C[C@@H]1C[C@@H]([C@H](O)CC2CC(=O)NC(=O)C2)C(=O)[C@@H](C)C1
T/C (dose: 16.0 mg/kg/injection, schedule: Q01DX015 (ip), vehicle: saline): 121 % of control
T/C (dose: 24.0 mg/kg/injection, schedule: Q01DX015 (ip), vehicle: saline): 120 % of control
T/C (dose: 36.0 mg/kg/injection, schedule: Q01DX015 (ip), vehicle: saline): 116 % of control
T/C (dose: 44.0 mg/kg/injection, schedule: Q01DX001 (ip), vehicle: saline): 98 % of control
T/C (dose: 67.0 mg/kg/injection, schedule: Q01DX001 (ip), vehicle: saline): 104 % of control
T/C (dose: 100.0 mg/kg/injection, schedule: Q01DX001 (ip), vehicle: saline): 103 % of control

OC(CBr)C(O)C(O)C(O)CBr (stereo unspecified)
T/C (dose: 25.0 mg/kg/injection, schedule: Q01DX009 (ip), vehicle: steriod suspending solution): 108 % of control
T/C (dose: 50.0 mg/kg/injection, schedule: Q01DX009 (ip), vehicle: steriod suspending solution): 121 % of control
T/C (dose: 100.0 mg/kg/injection, schedule: Q01DX009 (ip), vehicle: steriod suspending solution): 117 % of control

CCn1cnc2c(SC(C)C)ncnc21
T/C (dose: 16.0 mg/kg/injection, schedule: Q01DX Z (ip), vehicle: carboxymethylcellulose (CMC)): 100 % of control
T/C (dose: 31.0 mg/kg/injection, schedule: Q01DX Z (ip), vehicle: carboxymethylcellulose (CMC)): 109 % of control
T/C (dose: 62.0 mg/kg/injection, schedule: Q01DX Z (ip), vehicle: carboxymethylcellulose (CMC)): 110 % of control

O=NN(CCCl)C(=O)NC1CCC(=O)NC1=O (stereo unspecified)
T/C (dose: 2.1 mg/kg/injection, schedule: Q01DX001 (ip), vehicle: other): 106 % of control and 116 % of control
T/C (dose: 4.0 mg/kg/injection, schedule: Q01DX001 (ip), vehicle: other): 156 % of control and 226 % of control
T/C (dose: 8.0 mg/kg/injection, schedule: Q01DX001 (ip), vehicle: other): 159 % of control and 161 % of control and 183 % of control
T/C (dose: 8.0 mg/kg/injection, schedule: Q01DX001 (ip), vehicle: saline with Tween-80): 352 % of control
T/C (dose: 11.0 mg/kg/injection, schedule: Q01DX001 (ip), vehicle: other): 251 % of control
T/C (dose: 12.0 mg/kg/injection, schedule: Q01DX001 (ip), vehicle: other): 298 % of control and 327 % of control
T/C (dose: 13.0 mg/kg/injection, schedule: Q01DX001 (ip), vehicle: saline with Tween-80): 542 % of control
T/C (dose: 16.0 mg/kg/injection, schedule: Q01DX001 (ip), vehicle: other): 274 % of control and 328 % of control
T/C (dose: 17.0 mg/kg/injection, schedule: Q01DX001 (ip), vehicle: other): 389 % of control and 498 % of control
T/C (dose: 20.0 mg/kg/injection, schedule: Q01DX001 (ip), vehicle: saline with Tween-80): 625 % of control
T/C (dose: 22.0 mg/kg/injection, schedule: Q01DX001 (ip), vehicle: other): 251 % of control
T/C (dose: 24.0 mg/kg/injection, schedule: Q01DX001 (ip), vehicle: other): 238 % of control and 335 % of control
T/C (dose: 30.0 mg/kg/injection, schedule: Q01DX001 (ip), vehicle: saline with Tween-80): 107 % of control
T/C (dose: 33.0 mg/kg/injection, schedule: Q01DX001 (ip), vehicle: other): 297 % of control
T/C (dose: 35.0 mg/kg/injection, schedule: Q01DX001 (ip), vehicle: other): 287 % of control and 353 % of control
T/C (dose: 36.0 mg/kg/injection, schedule: Q01DX001 (ip), vehicle: other): 205 % of control
T/C (dose: 44.0 mg/kg/injection, schedule: Q01DX001 (ip), vehicle: other): 275 % of control
